System: 435261-313-R-J1-PDC tumor spheroid viability
Assay: Anticancer human tumor 435261-313-R-J1-PDC patient-derived colon adenocarcinoma cell line growth inhibition [PI3K]
Conditions: spheroids with HUVEC and MSC; for IC50: curve of first compound; for viability, T/C: stronger effect = lower value
Excerpt: Combinatorial screen of targeted agents with the PI3K inhibitors inavolisib, alpelisib, duvelisib, and copanlisib in multi-cell type tumor spheroids
A high-throughput screen of multi-cell type tumor spheroids was designed to identify active combinations of targeted small molecules and PI3K pathway inhibitors. Complex spheroids include a stromal component modeled by human endothelial cells (HUVEC) and fibroblasts modeled by human mesenchymal stem cells (MSCs). The concentration ranges selected for each drug and investigational agent were based upon clinically achievable concentrations if the clinical Cmax of the agent was known.
Compounds. The drugs and investigational agents: inavolisib (NSC800729), alpelisib (NSC765974), duvelisib (NSC772469), copanlisib (NSC816437), ipatasertib (NSC767898), afuresertib (NSC778305), talazoparib (NSC767125), sapanisertib (NSC764658), selumetinib (NSC741078), tovorafenib (DAY101, NSC766906), vemurafenib (NSC761431), ravoxertinib (NSC781343), sotorasib (NSC818433), MRTX1133 (NSC 836407), abemaciclib (NSC 768073), palbociclib (NSC758247), venetoclax (NSC 766270), SY5609 (NSC837396), enzalutamide (NSC755605), and darolutamide (NSC825331), were obtained from the National Cancer Institute (NCI) Developmental Therapeutics Program Chemical Repository. The FDA-approved anticancer drug set is available from the NCI Developmental Therapeutics Program. […] The stock solutions were prepared in dimethyl sulfoxide (DMSO, Sigma-Aldrich, St. Louis, MO, cat. D2650) at 800-fold the tested concentration and stored at -70 degrees C prior to their use. All drugs and investigational agents were tested over a range starting from a high concentration at or near the clinical Cmax and decreasing in half-log increments. If the clinical Cmax for an agent had not been determined, the highest concentration tested was 10 microM.
Cell Culture. All cells were maintained in an incubator at 37 degrees C and 5% CO2 with 95% humidity. The PDC lines were cultured according to standard operating procedures established by the NCI PDMR (https://pdmr.cancer.gov/sops/default.htm). All PDCs were thawed and cultured in Matrigel-coated flasks prepared with a working solution of 1X Ham's F-12 nutrient mix, without supplementation (Invitrogen, Waltham, MA, cat. 11765054), 100 U/mL penicillin-streptomycin (Invitrogen, cat. 15140122), and 2.5% Matrigel (Corning Inc., Corning, NY, cat. 354248) for the first three passages. The 354836-022-R-J1-PDC, 475296-252-R-J1-PDC, and 997726-040-R-J2-PDC lines were cultured in 6A media, which includes advanced DMEM/F-12 (Thermo Fisher Scientific, cat. 12634028), 10 mM HEPES (Thermo Fisher Scientific, cat. 15630080), 1X GlutaMAX supplement (Thermo Fisher Scientific, cat. 35050061), 0.1 mg/mL primocin (InvivoGen, San Diego, CA, cat. ant-pm-2), 10% defined fetal bovine serum, heat inactivated (HyClone Laboratories Inc., Logan, UT, cat. SH30070.03HI), 50% L-WRN conditioned media (ATCC, cat. CRL-3276), 1.25 mM N-Acetyl-L-cysteine (Sigma-Aldrich, cat. A9165), 10 mM nicotinamide (Sigma-Aldrich, cat. N0636), 1X B-27 supplement (Thermo Fisher Scientific, cat. 17504044), 1X N-2 supplement (Thermo Fisher Scientific, cat. 17502048), and 10 microM Y-27632 dihydrochloride (Tocris Bioscience, Bristol, United Kingdom, cat. 1254). The 624824-186-R-J2-PDC line was cultured in 6C/Colon 1B media, which includes all 6A media components plus 50 ng/mL human EGF recombinant protein (Thermo Fisher Scientific, cat. PHG0311). […]
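Further: spheroids exposed to compounds for 7 days.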

Which results are given for `Cn1cnc2c(F)c(Nc3ccc(Br)cc3Cl)c(C(=O)NOCCO)cc21` + CC(Nc1ccc2c(c1)OCCn1cc(N3C(=O)OCC3C(F)F)nc1-2)C(N)=O?
IC50 (second compound 0.00316 µM): < 9.49 nM; IC50 (second compound 0.01 µM): < 9.49 nM; IC50 (second compound 0.0316 µM): < 9.49 nM; IC50 (second compound 0.1 µM): < 9.49 nM; IC50 (second compound 0.316 µM): < 9.49 nM; IC50 (second compound 1 µM): < 9.49 nM; viability, T/C (second compound 0.00316 µM, first compound 0.00949 µM): 28.1%; viability, T/C (second compound 0.00316 µM, first compound 0.03 µM): 22.7%; viability, T/C (second compound 0.00316 µM, first compound 0.0949 µM): 14.8%; viability, T/C (second compound 0.00316 µM, first compound 0.3 µM): 15.4%; viability, T/C (second compound 0.00316 µM, first compound 0.949 µM): 16.1%; viability, T/C (second compound 0.00316 µM, first compound 3 µM): 11%; viability, T/C (second compound 0.01 µM, first compound 0.00949 µM): 25.1%; viability, T/C (second compound 0.01 µM, first compound 0.03 µM): 24.3%; viability, T/C (second compound 0.01 µM, first compound 0.0949 µM): 16.8%; viability, T/C (second compound 0.01 µM, first compound 0.3 µM): 16.2%; viability, T/C (second compound 0.01 µM, first compound 0.949 µM): 16.1%; viability, T/C (second compound 0.01 µM, first compound 3 µM): 11.5%; viability, T/C (second compound 0.0316 µM, first compound 0.00949 µM): 25.9%; viability, T/C (second compound 0.0316 µM, first compound 0.03 µM): 23.4%; viability, T/C (second compound 0.0316 µM, first compound 0.0949 µM): 15.4%; viability, T/C (second compound 0.0316 µM, first compound 0.3 µM): 14.8%; viability, T/C (second compound 0.0316 µM, first compound 0.949 µM): 12.2%; viability, T/C (second compound 0.0316 µM, first compound 3 µM): 6.61%; viability, T/C (second compound 0.1 µM, first compound 0.00949 µM): 21.4%; viability, T/C (second compound 0.1 µM, first compound 0.03 µM): 12.5%; viability, T/C (second compound 0.1 µM, first compound 0.0949 µM): 13.1%; viability, T/C (second compound 0.1 µM, first compound 0.3 µM): 11.7%; viability, T/C (second compound 0.1 µM, first compound 0.949 µM): 10.7%; viability, T/C (second compound 0.1 µM, first compound 3 µM): 6.55%; viability, T/C (second compound 0.316 µM, first compound 0.00949 µM): 12%; viability, T/C (second compound 0.316 µM, first compound 0.03 µM): 12.2%; viability, T/C (second compound 0.316 µM, first compound 0.0949 µM): 4.89%; viability, T/C (second compound 0.316 µM, first compound 0.3 µM): 8.13%; viability, T/C (second compound 0.316 µM, first compound 0.949 µM): 7.5%; viability, T/C (second compound 0.316 µM, first compound 3 µM): 2.69%; viability, T/C (second compound 1 µM, first compound 0.00949 µM): 11.9%; viability, T/C (second compound 1 µM, first compound 0.03 µM): 9.34%; viability, T/C (second compound 1 µM, first compound 0.0949 µM): 5.53%; viability, T/C (second compound 1 µM, first compound 0.3 µM): 6.3%; viability, T/C (second compound 1 µM, first compound 0.949 µM): 4.59%; viability, T/C (second compound 1 µM, first compound 3 µM): 0.73%

— PubChem BioAssay AID1963976 (Molecular Pharmacology Branch, DTP, NCI, 2024)
